In patent publication US11214803B2, “Modulators of YAP1 expression” (Ionis Pharmaceuticals, Inc., priority 2019, dated 2022):
Strand notation (5' to 3'): a small letter for the sugar, then the base; units joined by * are phosphorothioate-linked, units joined directly phosphodiester-linked; [ ] holds rarer units or linkages, { } end groups; capitals alone tell only the bases. k = constrained ethyl (cEt); [5mC] = 5-methylcytosine; d = 2'-deoxy (DNA)

System: Yap1 mRNA
Experiment: Antisense inhibition of human Yap1 in A-431 cells by cEt gapmers, single dose (Example 1, RTS4814)
Type: cell-based
In short: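 Free uptake of 2,000 nM 3-10-3 cEt gapmer (16-mer, full phosphorothioate, 5-methylcytosines) in A-431 cells for ~48 h. Yap1 mRNA quantified by qRT-PCR with set RTS4814, normalized to total RNA (RiboGreen), and expressed as % of untreated control; asterisked values target the amplicon region.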

[1] = A-431 cells, 5,000 cells per well, free uptake, 2,000 nM modified oligonucleotide, approx. 48 hours, RTS4814, normalized to RIBOGREEN, Table 3
[2] = Table 1, A-431 cells, free uptake, 2,000 nM, approximately 48 hours, RTS4814, Yap1 mRNA relative to untreated control cells
[3] = Table 2, A-431 cells, free uptake, 2,000 nM, approximately 48 hours, RTS4814, Yap1 mRNA relative to untreated control cells

Substance	YAP1 (% UTC) [1] [% UTC]	YAP1 (% UTC) [2] [% UTC]	YAP1 (% UTC) [3] [% UTC]
715435 (antisense kG*kG*kT*d[5mC]*dT*dT*dG*dT*dT*d[5mC]*dT*dT*dA*kT*kG*kG) [Compound 715435]	36		
715505 (antisense kA*kT*kT*dG*dG*dT*dT*dT*dA*dT*dT*dG*dT*kA*kA*kA) [Compound 715505]		84	
715604 (antisense kT*kA*kG*d[5mC]*dA*d[5mC]*dA*dG*dA*dA*dT*dT*d[5mC]*k[5mC]*k[5mC]*kA) [Compound 715604]		107	
715631 (antisense kA*kT*kA*dA*dG*dA*dG*d[5mC]*d[5mC]*dT*dA*d[5mC]*d[5mC]*kT*kG*kA) [Compound 715631]		134	
715467 (antisense k[5mC]*kA*kT*d[5mC]*dT*d[5mC]*d[5mC]*dT*dT*d[5mC]*d[5mC]*dA*dG*kT*kG*kT) [Compound 715467]			77
715561 (k[5mC]*kA*k[5mC]*dA*dA*d[5mC]*dT*d[5mC]*dA*dG*dA*d[5mC]*dA*kG*kG*kG; antisense) [Compound 715561]	69		
715400 (k[5mC]*kT*k[5mC]*d[5mC]*dG*dA*dG*dT*d[5mC]*d[5mC]*d[5mC]*d[5mC]*dG*k[5mC]*kG*kG; antisense) [Compound 715400]		107	
715622 (antisense kA*kG*kT*dA*dA*dA*dA*dA*dA*dT*dA*dA*dG*kA*k[5mC]*kG) [Compound 715622]		137	
715535 (k[5mC]*kT*kA*dT*dT*dA*dA*dG*d[5mC]*dT*dG*dT*dT*kT*kA*kA; antisense) [Compound 715535]		91	
715404 (kA*kA*kG*dA*dA*dG*dG*dA*dG*dT*d[5mC]*dG*dG*kG*k[5mC]*kA; antisense) [Compound 715404]			64
715407 (kG*kG*k[5mC]*dT*dT*dG*dA*dA*dG*dA*dA*dG*dG*kA*kG*kT; antisense) [Compound 715407]			53
715458 (antisense k[5mC]*kG*kA*dG*dA*dG*dT*dG*dA*dT*dA*dG*dG*kT*kG*k[5mC]) [Compound 715458]			58
715617 (antisense kA*kA*kG*dA*d[5mC]*dG*dG*dA*dT*dA*dA*dA*dA*kA*kT*kT) [Compound 715617]			98
715615 (antisense k[5mC]*kG*kG*dA*dT*dA*dA*dA*dA*dA*dT*dT*dA*k[5mC]*kT*kT) [Compound 715615]	94		
715587 (kT*kG*kA*dA*dA*dA*dG*dG*dT*d[5mC]*dT*dG*dG*kA*kA*k[5mC]; antisense) [Compound 715587]			79
715490 (antisense k[5mC]*k[5mC]*kA*dA*d[5mC]*dT*dA*dT*dT*dA*d[5mC]*dT*dT*k[5mC]*kA*kT) [Compound 715490]		38	
715580 (kG*k[5mC]*k[5mC]*dT*dG*dT*d[5mC]*dT*dG*dG*dA*dA*dT*kA*k[5mC]*kA; antisense) [Compound 715580]		101	
715445 (antisense k[5mC]*kA*kT*d[5mC]*d[5mC]*dT*dG*d[5mC]*dT*d[5mC]*d[5mC]*dA*dG*kT*kG*kT) [Compound 715445]		87	
715525 (kT*kT*kA*d[5mC]*dT*dT*dT*dA*dA*dG*dA*dA*dG*kT*kA*kT; antisense) [Compound 715525]	100		
715421 (kG*kT*kG*dA*dT*dT*dT*dA*dA*dG*dA*dA*dG*kT*kA*kT; antisense) [Compound 715421]		71	
715457 (antisense kA*kG*kA*dG*dT*dG*dA*dT*dA*dG*dG*dT*dG*k[5mC]*k[5mC]*kA) [Compound 715457]		47	
715441 (antisense k[5mC]*kT*k[5mC]*dT*dG*dG*dT*dT*d[5mC]*dA*dT*dG*dG*k[5mC]*kA*kA) [Compound 715441]	57		
715590 (kT*kT*kG*dG*d[5mC]*dA*dG*dA*dG*dA*dT*dA*dA*kA*kA*k[5mC]; antisense) [Compound 715590]			84
715465 (antisense kG*kT*k[5mC]*d[5mC]*dA*d[5mC]*dA*dT*dT*dT*dG*dT*d[5mC]*k[5mC]*k[5mC]*kA) [Compound 715465]	91		
715498 (antisense kT*kG*kA*dA*d[5mC]*d[5mC]*d[5mC]*dT*dT*dG*dA*dA*dA*kA*kT*kA) [Compound 715498]	91		
715504 (antisense kT*kG*kG*dT*dT*dT*dA*dT*dT*dG*dT*dA*dA*kA*kA*kG) [Compound 715504]	70		
715576 (kA*kA*k[5mC]*d[5mC]*dT*dT*dT*dA*d[5mC]*d[5mC]*dA*dA*dA*kA*k[5mC]*kG; antisense) [Compound 715576]	80		

Substance	YAP1 (% UTC) [1] [% UTC]	YAP1 (% UTC) [2] [% UTC]	YAP1 (% UTC) [3] [% UTC]
715425 (kG*kT*k[5mC]*d[5mC]*dT*dG*d[5mC]*d[5mC]*dA*dT*dG*dT*dT*kG*kT*kT; antisense) [Compound 715425]			98
715630 (antisense kA*kA*kG*dA*dG*d[5mC]*d[5mC]*dT*dA*d[5mC]*d[5mC]*dT*dG*kA*k[5mC]*kA) [Compound 715630]	94		
715429 (k[5mC]*k[5mC]*kT*dG*dA*dG*dT*d[5mC]*dA*dT*dG*dG*d[5mC]*kT*kT*kG; antisense) [Compound 715429]	62		
715566 (kT*kA*kG*dG*dA*dT*dA*dA*dA*dT*dG*dA*dA*kT*kT*kA; antisense) [Compound 715566]			94
715625 (antisense kA*kT*kT*dG*d[5mC]*d[5mC]*dT*dA*dA*dG*dA*dG*dT*kA*kA*kA) [Compound 715625]		99	
715594 (antisense kA*kT*kA*dT*dT*dT*d[5mC]*dT*dT*dT*dG*dG*d[5mC]*kA*kG*kA) [Compound 715594]	39		
715446 (antisense kA*kT*kT*d[5mC]*d[5mC]*dT*dG*dA*dG*dA*d[5mC]*dA*dT*k[5mC]*k[5mC]*k[5mC]) [Compound 715446]			81
715555 (kG*kT*kT*dA*dT*dT*d[5mC]*dA*dG*d[5mC]*dA*dG*d[5mC]*kT*kT*kA; antisense) [Compound 715555]	21		
715581 (kA*kA*kG*d[5mC]*d[5mC]*dT*dG*dT*d[5mC]*dT*dG*dG*dA*kA*kT*kA; antisense) [Compound 715581]			106
715401 (kG*kG*kT*d[5mC]*dT*d[5mC]*d[5mC]*dG*dA*dG*dT*d[5mC]*d[5mC]*k[5mC]*k[5mC]*kG; antisense) [Compound 715401]			84
715452 (antisense kG*kT*k[5mC]*dA*dT*dT*dG*dT*dT*d[5mC]*dT*d[5mC]*dA*kA*kT*kT) [Compound 715452]			71
715430 (kA*kT*k[5mC]*d[5mC]*dT*dG*dA*dG*dT*d[5mC]*dA*dT*dG*kG*k[5mC]*kT; antisense) [Compound 715430]		118	
715588 (kA*kG*k[5mC]*dA*dG*d[5mC]*dT*dA*dA*d[5mC]*dA*dG*d[5mC]*kT*kT*kG; antisense) [Compound 715588]	96		
715598 (antisense k[5mC]*k[5mC]*k[5mC]*dA*dA*dG*d[5mC]*dT*dA*d[5mC]*d[5mC]*d[5mC]*dA*kA*kG*kA) [Compound 715598]		103	
715468 (antisense kG*k[5mC]*kT*dT*dG*dG*dT*dG*dG*d[5mC]*dA*dG*d[5mC]*k[5mC]*kA*kA) [Compound 715468]	90		
715520 (kT*kT*k[5mC]*dT*dT*dT*d[5mC]*d[5mC]*dA*d[5mC]*dT*d[5mC]*dA*kA*kG*kT; antisense) [Compound 715520]		122	
715521 (kT*k[5mC]*kT*dT*d[5mC]*dT*dT*dT*d[5mC]*d[5mC]*dA*d[5mC]*dT*k[5mC]*kA*kA; antisense) [Compound 715521]			72
715538 (k[5mC]*kT*kT*dT*dG*dT*dA*dA*d[5mC]*dT*dT*dA*dA*kA*kA*kG; antisense) [Compound 715538]		110	
715547 (kG*kT*kT*dG*dA*d[5mC]*d[5mC]*dA*dA*d[5mC]*dT*dA*d[5mC]*kT*kT*kG; antisense) [Compound 715547]		98	
715567 (kG*kG*kT*dA*dG*dG*dA*dT*dA*dA*dA*dT*dG*kA*kA*kT; antisense) [Compound 715567]	99		
715577 (kG*k[5mC]*kA*dT*dT*d[5mC]*dA*d[5mC]*dA*dG*dA*dG*dT*kT*kA*kA; antisense) [Compound 715577]		21	
715405 (kT*kG*kA*dA*dG*dA*dA*dG*dG*dA*dG*dT*d[5mC]*kG*kG*kG; antisense) [Compound 715405]	60		
715416 (k[5mC]*kT*k[5mC]*dG*dA*dA*d[5mC]*dA*dT*dG*d[5mC]*dT*dG*kT*kG*kG; antisense) [Compound 715416]			53
715478 (antisense kA*k[5mC]*k[5mC]*dA*dT*dT*dA*dT*dT*dA*d[5mC]*dT*d[5mC]*k[5mC]*kT*kG) [Compound 715478]		7	
715494 (antisense kG*kA*kG*dG*dT*dG*d[5mC]*dT*dA*dG*d[5mC]*dT*dG*kG*kT*kG) [Compound 715494]			46
715562 (k[5mC]*kA*k[5mC]*dA*d[5mC]*dA*dA*d[5mC]*dT*d[5mC]*dA*dG*dA*k[5mC]*kA*kG; antisense) [Compound 715562]		77	
